Key:
Test in all cases: relative viability (nuclei count vs DMSO), 5 days (fraction); higher = more cells survive
[1] = system: 201T
Procedure, shortened: (§1)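 Five library-drug doses in √10 steps were combined with a fixed anchor-drug dose, or a single drug was given alone, by pin tool to lung cancer cell lines in 1536-well plates the day after seeding. Nuclei were stained and counted after 5 days. Relative viability is the nuclei count in treated wells over that in vehicle wells, taken as the median of duplicate plates.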

[2] = system: A-427
Procedure, shortened: as §1

[3] = system: COR-L 105
Procedure, shortened: as §1

[4] = system: COR-L23
Procedure, shortened: as §1

[5] = system: EKVX
Procedure, shortened: as §1

[6] = system: HARA
Procedure, shortened: as §1

[7] = system: HCC-15
Procedure, shortened: as §1

[8] = system: HCC-44
Procedure, shortened: as §1

[9] = system: HCC-827
Procedure, shortened: as §1

[10] = system: LCLC-103H
Procedure, shortened: as §1

[11] = system: LK-2
Procedure, shortened: as §1

[12] = system: NCI-H1437
Procedure, shortened: as §1

[13] = system: NCI-H1666
Procedure, shortened: as §1

[14] = system: NCI-H1792
Procedure, shortened: as §1

[15] = system: NCI-H1975
Procedure, shortened: as §1

[16] = system: NCI-H23
Procedure, shortened: as §1

[17] = system: NCI-H441
Procedure, shortened: as §1

[18] = system: NCI-H520
Procedure, shortened: as §1

[19] = system: NCI-H522
Procedure, shortened: as §1

[20] = system: NCI-H596
Procedure, shortened: as §1

[21] = system: NCI-H650
Procedure, shortened: as §1

[22] = system: NCI-H838
Procedure, shortened: as §1

[23] = system: SK-MES-1
Procedure, shortened: as §1

[24] = system: SW 900
Procedure, shortened: as §1

C[C@@H]1CN(CC(=O)Nc2ccc3c(c2)Cc2cccc(-c4cc(=O)cc(N5CCOCC5)o4)c2S3)C[C@H](C)O1 + CCNC(=O)c1noc(-c2cc(C(C)C)c(O)cc2O)c1-c1ccc(CN2CCOCC2)cc1 [Luminespib] (partner 0.01 µM)
relative viability ([1]; first compound 0.04 µM): 1.06 | relative viability ([1]; first compound 0.1265 µM): 1.05 | relative viability ([1]; first compound 0.4 µM): 1.04 | relative viability ([1]; first compound 4 µM): 1.01 | relative viability ([2]; first compound 0.1265 µM): 0.884 | relative viability ([2]; first compound 0.4 µM): 1.02 | relative viability ([2]; first compound 4 µM): 1.02 | relative viability ([3]; first compound 0.04 µM): 0.882 | relative viability ([3]; first compound 0.1265 µM): 0.719 | relative viability ([3]; first compound 0.4 µM): 0.887 | relative viability ([3]; first compound 4 µM): 0.783 | relative viability ([4]; first compound 0.04 µM): 0.793 | relative viability ([4]; first compound 0.1265 µM): 0.705 | relative viability ([4]; first compound 0.4 µM): 0.729 | relative viability ([4]; first compound 4 µM): 0.458 | relative viability ([5]; first compound 0.04 µM): 0.802 | relative viability ([5]; first compound 0.1265 µM): 0.874 | relative viability ([5]; first compound 0.4 µM): 0.955 | relative viability ([5]; first compound 4 µM): 0.814 | relative viability ([6]; first compound 0.1265 µM): 0.675 | relative viability ([6]; first compound 0.4 µM): 0.471 | relative viability ([6]; first compound 4 µM): 0.89 | relative viability ([7]; first compound 0.04 µM): 0.358 | relative viability ([7]; first compound 0.1265 µM): 0.282 | relative viability ([7]; first compound 0.4 µM): 0.284 | relative viability ([7]; first compound 4 µM): 0.27 | relative viability ([8]; first compound 0.04 µM): 0.9 | relative viability ([8]; first compound 0.1265 µM): 1.04 | relative viability ([8]; first compound 0.4 µM): 1.19 | relative viability ([8]; first compound 4 µM): 0.949 | relative viability ([9]; first compound 0.04 µM): 0.547 | relative viability ([9]; first compound 0.1265 µM): 0.469 | relative viability ([9]; first compound 0.4 µM): 0.915 | relative viability ([9]; first compound 4 µM): 0.681 | relative viability ([10]; first compound 0.04 µM): 0.949 | relative viability ([10]; first compound 0.1265 µM): 0.971 | relative viability ([10]; first compound 0.4 µM): 0.906 | relative viability ([10]; first compound 4 µM): 0.72 | relative viability ([11]; first compound 0.1265 µM): 0.202 | relative viability ([11]; first compound 0.4 µM): 0.24 | relative viability ([11]; first compound 4 µM): 0.188 | relative viability ([12]; first compound 0.04 µM): 1.2 | relative viability ([12]; first compound 0.1265 µM): 1.16 | relative viability ([12]; first compound 0.4 µM): 1.22 | relative viability ([12]; first compound 4 µM): 0.891 | relative viability ([13]; first compound 0.04 µM): 1 | relative viability ([13]; first compound 0.1265 µM): 1.09 | relative viability ([13]; first compound 0.4 µM): 1.12 | relative viability ([13]; first compound 4 µM): 0.905 | relative viability ([14]; first compound 0.04 µM): 0.385 | relative viability ([14]; first compound 0.1265 µM): 0.493 | relative viability ([14]; first compound 0.4 µM): 0.399 | relative viability ([14]; first compound 4 µM): 0.333 | relative viability ([15]; first compound 0.04 µM): 0.289 | relative viability ([15]; first compound 0.1265 µM): 0.199 | relative viability ([15]; first compound 0.4 µM): 0.26 | relative viability ([15]; first compound 4 µM): 0.158 | relative viability ([16]; first compound 0.04 µM): 0.205 | relative viability ([16]; first compound 0.1265 µM): 0.213 | relative viability ([16]; first compound 0.4 µM): 0.227 | relative viability ([16]; first compound 4 µM): 0.178 | relative viability ([17]; first compound 0.04 µM): 0.305 | relative viability ([17]; first compound 0.1265 µM): 0.354 | relative viability ([17]; first compound 0.4 µM): 0.274 | relative viability ([17]; first compound 4 µM): 0.309 | relative viability ([18]; first compound 0.04 µM): 0.249 | relative viability ([18]; first compound 0.1265 µM): 0.256 | relative viability ([18]; first compound 0.4 µM): 0.224 | relative viability ([18]; first compound 4 µM): 0.221 | relative viability ([19]; first compound 0.1265 µM): 1.17 | relative viability ([19]; first compound 0.4 µM): 1.06 | relative viability ([19]; first compound 4 µM): 0.896 | relative viability ([20]; first compound 0.04 µM): 1.16 | relative viability ([20]; first compound 0.1265 µM): 1.18 | relative viability ([20]; first compound 0.4 µM): 0.921 | relative viability ([20]; first compound 4 µM): 0.964 | relative viability ([21]; first compound 0.04 µM): 0.836 | relative viability ([21]; first compound 0.1265 µM): 0.827 | relative viability ([21]; first compound 0.4 µM): 0.831 | relative viability ([21]; first compound 4 µM): 0.738 | relative viability ([22]; first compound 0.04 µM): 0.383 | relative viability ([22]; first compound 0.1265 µM): 0.278 | relative viability ([22]; first compound 0.4 µM): 0.286 | relative viability ([22]; first compound 4 µM): 0.258 | relative viability ([23]; first compound 0.04 µM): 0.659 | relative viability ([23]; first compound 0.1265 µM): 0.764 | relative viability ([23]; first compound 0.4 µM): 0.664 | relative viability ([23]; first compound 4 µM): 0.475 | relative viability ([24]; first compound 0.04 µM): 0.166 | relative viability ([24]; first compound 0.1265 µM): 0.165 | relative viability ([24]; first compound 0.4 µM): 0.169 | relative viability ([24]; first compound 4 µM): 0.178
